Experimental findings from patent US6566408B1, “Aqueous surfactant compositions of monoalkyl phosphate ester salts and amphoteric surfactants” (Rhodia, Inc., priority 2000, dated 2003) are described below.

Molecules are shown by their SMILES.

In this series the test system is human subjects (skin of the back). The experiment in a line: 14-Day Cumulative Irritation Assay (occlusive patch, comparative dermal irritation potential). In kind it is in vivo. An excerpt:
In the following study, the tested solutions were at a total surfactant actives content of 0.5% by weight. […] 14-Day Cumulative Irritation Assay of the Comparitive Dermal Irritation Potential of a Series of Test Articles The objective of this study was to determine the comparative dermal irritation potential of a series of nine (9) test articles on twenty-five (25) subjects using a 14-Day Cumulative Irritation Assay. Twenty-five (25) subjects, 1 male and 24 females, ranging in age from 18 to 55 years were empaneled for this test. […] Each day during the duration of the study, patches were removed and the sites were evaluated for irritation using the 6-point scoring system outlined below. […] This procedure was repeated at each visit for a period of fourteen (14) consecutive days, excluding Sundays (Saturday's patches were worn until Monday. Monday's irritation scores were recorded as Sunday's scores and Sunday was counted as an exposure day). Patch test sites were evaluated daily and scores were recorded on a Cumulative Irritation Patch Test recording form. Individual test article scores were calculated via summation of the results for each day. […] The following day's score was “carried back” and recorded for the missed visit day. […]

As for `CCCCCCCCCCCCOS(=O)(=O)[O-].[Na+]` [Test Article #9, Sodium lauryl sulphate], the “Total Cum. Irrit. Scores” value (sum of total cumulative score for 14 days, 22 subjects, highest possible 924, solutions at 0.5% total surfactant actives) is listed as 844.5. Also, the “Mean Cum. Irrit. Scores” value (total divided by 22 subjects, highest possible 42, 14 days, 0.5% total surfactant actives) was 38.4.
